In the CheMixHub viscosity set:

Assay: xn = mol fraction of the nth substance listed

CCCCNCCCC + CCCO
viscosity [mPa·s], 101.33 kPa
Conditions | x1 = 0.0988 | x1 = 0.1893 | x1 = 0.3012 | x1 = 0.4041 | x1 = 0.4964 | x1 = 0.59 | x1 = 0.693 | x1 = 0.7809 | x1 = 0.8947
303.15 K | 1.681 | 1.564 | 1.404 | 1.276 | 1.176 | 1.084 | 0.9942 | 0.9209 | 0.832
313.15 K | 1.309 | 1.228 | 1.123 | 1.03 | 0.9494 | 0.8887 | 0.8255 | 0.7761 | 0.7157

CCCC(=O)O + C1CCCCC1
303.15 K, 101 kPa
Conditions | viscosity [mPa·s]
x2 = 0.101 | 1.196
x2 = 0.1921 | 1.069
x2 = 0.2875 | 0.9914
x2 = 0.3938 | 0.9189
x2 = 0.4993 | 0.867
x2 = 0.591 | 0.8407
x2 = 0.6993 | 0.7948
x2 = 0.8074 | 0.7912
x2 = 0.9011 | 0.7924

CC(=O)OCC(C)C + Cc1cccc(C)c1
viscosity [mPa·s], 101 kPa
Conditions | x1 = 0.094 | x1 = 0.1803 | x1 = 0.2916 | x1 = 0.3889 | x1 = 0.4721 | x1 = 0.5698 | x1 = 0.6807 | x1 = 0.7789 | x1 = 0.8716 | x1 = 0.9307
303.15 K | 0.556 | 0.562 | 0.572 | 0.582 | 0.592 | 0.602 | 0.616 | 0.629 | 0.641 | 0.644
313.15 K | 0.505 | 0.508 | 0.515 | 0.521 | 0.527 | 0.536 | 0.546 | 0.555 | 0.566 | 0.572

CCCC(=O)O + NC=O
viscosity [mPa·s], 101 kPa
Conditions | x1 = 0.1043 | x1 = 0.2044 | x1 = 0.3013 | x1 = 0.4031 | x1 = 0.5027 | x1 = 0.5996 | x1 = 0.7011 | x1 = 0.799 | x1 = 0.857 | x1 = 0.951
298.15 K | 2.333 | 3.534 | 5.24 | 7.11 | 8.41 | 9.33 | 9.17 | 8.51 | 7.33 | 4.986
313.15 K | 1.734 | 2.563 | 3.461 | 4.456 | 5.37 | 5.8 | 5.8 | 5.54 | 4.779 | 3.252

CCCC(=O)O + CCC(C)=O
viscosity [mPa·s], 101 kPa
Conditions | x2 = 0.1024 | x2 = 0.2043 | x2 = 0.3057 | x2 = 0.4065 | x2 = 0.5067 | x2 = 0.6064 | x2 = 0.7056 | x2 = 0.8043 | x2 = 0.9024
293.15 K | 1.383 | 1.236 | 1.1 | 0.9737 | 0.8582 | 0.7526 | 0.6569 | 0.571 | 0.4948
303.15 K | 1.2 | 1.078 | 0.9646 | 0.8589 | 0.761 | 0.6716 | 0.5897 | 0.515 | 0.4485
313.15 K | 1.021 | 0.9263 | 0.8368 | 0.7525 | 0.6733 | 0.5989 | 0.5293 | 0.4645 | 0.4044

COCCO + C1CCCCC1
viscosity [mPa·s], 101 kPa
Conditions | 298.15 K | 308.15 K
x1 = 0.054 | 0.905 | 0.75
x1 = 0.1506 | 0.923 | 0.757
x1 = 0.2513 | 0.95 | 0.773
x1 = 0.3532 | 0.989 | 0.797
x1 = 0.4508 | 1.037 | 0.829
x1 = 0.4955 | 1.062 | 0.847
x1 = 0.5513 | 1.098 | 0.873
x1 = 0.649 | 1.172 | 0.926
x1 = 0.7493 | 1.264 | 0.994
x1 = 0.8496 | 1.377 | 1.079
x1 = 0.9529 | 1.518 | 1.185

CCCC(=O)O + Cc1ccccc1N
viscosity [mPa·s], 100 kPa
Conditions | x2 = 0.0971 | x2 = 0.1896 | x2 = 0.2605 | x2 = 0.3617 | x2 = 0.4825 | x2 = 0.5911 | x2 = 0.6776 | x2 = 0.7516 | x2 = 0.8641
303.15 K | 1.59 | 1.78 | 1.92 | 2.12 | 2.35 | 2.55 | 2.71 | 2.84 | 3.03
308.15 K | 1.42 | 1.58 | 1.7 | 1.87 | 2.07 | 2.24 | 2.37 | 2.48 | 2.64
313.15 K | 1.26 | 1.4 | 1.51 | 1.66 | 1.83 | 1.98 | 2.1 | 2.19 | 2.33
318.15 K | 1.1 | 1.23 | 1.32 | 1.45 | 1.6 | 1.73 | 1.83 | 1.91 | 2.02
